{"source": "patent US20190329063A1", "about": "“METHOD FOR MODIFYING THE T[…] OF DRUGS” (priority 2016, published 2019)", "key": {"[1]": {"test_system": "subjects medicated with MPH", "assay": "Conjunctive continuous performance task (CPT) after half dose MPH with cognitive induction or music control", "format": "in vivo, human", "conditions": "half dose MPH PO", "source_text": "Reference is now made to FIGS. 7A-7B, depicting validation experiments for testing whether FPC improves attention functions of subjects medicated with MPH, according to some embodiments of the invention. In some embodiments, the experiment includes three sessions. In some embodiments, in the first session 702, the subjects performed a conjunctive continuous performance task (CPT, Shalev et al., 2011). In some embodiments, this test yields measures of sustained attention, which are generalized across different sensory modalities.\nAccording to some embodiments, in the second and the third sessions 706, the subjects took half of their prescribed drug 708 dose by per os (PO) administration. In some embodiments, in the first epoch they went through either a cognitive induction condition 714 during which they performed the NeuroTrax tasks or a control condition 712 during which they listened to a piece of their favorite music. In some embodiments, these 30 min conditions were followed by a 20-minutes rest epoch 716, for example to allow for the testing of an enduring effect of the FPC. […]\nAccording to some exemplary embodiments, FPC effect was measured for the sustained attention measures of average 722 and standard deviation 724 response time, which show high reliability and validity (Shalev et al., 2011). […]"}, "ADHD patients": {"test_system": "ADHD patients", "assay": "Real-time fMRI neurofeedback of right-IFG after Ritalin IR with CPTi, CPT and Strooplike tasks", "format": "in vivo, human", "conditions": "0.1-0.2 mg/kg Ritalin IR; right-IFG Up vs Down regulation; 24 ADHD patients", "method": "According to some exemplary embodiments, 24 ADHD patients participated in a three session within-subject experimental design.\nIn some embodiments, taking the known pharmacokinetic properties of MPH into account, the neurofeedback paradigm was scheduled to begin towards the estimated peak concentration of MPH in brain blood plasma (45 min), and last for 40 minutes, well into the drug's plateau of concentration phase, thus assuming a maximum effect of drug delivery and absorption to the rIFG and related brain regions. Additionally, cognitive performance was evaluated before administration and following the NF task via three behavioral tasks (CPTi, CPT and Strooplike, measuring response inhibition, sustained attention and executive attention, respectively; Shalev-Mevorach et al. 2005; 2011)."}, "[2]": {"conditions": "after administration of Ritalin IR; cited from earlier work"}}, "data": [{"smiles": "COC(=O)C(c1ccccc1)C1CCCCN1", "note": "(stereo not shown) [MPH, Methylphenidate]", "values": [{"measurement": "improvement of sustained attention measures, cognitive induction task relative to control task (music)", "setting": "[1]; two subjects", "value": "higher"}, {"measurement": "sustained attention measures of average and standard deviation response time (CPT)", "setting": "[1]; two subjects (males)", "value": "improved"}, {"measurement": "effects on sustained attention (CPT task) and response inhibition (CPTi task) following the up regulation condition", "setting": "ADHD patients", "value": "substantially larger effects"}, {"measurement": "estimated peak concentration of MPH in brain blood plasma (time)", "setting": "[2]", "value": 45, "unit": "min"}]}]}
